The values that follow come from patent publication US12161689B2, “Anti-infective formulations” (NEW MEXICO TECH UNIVERSITY RESEARCH PARK CORPORATION, priority 2018, dated 2024).

The test relates to multi-drug resistant Burkholderia cepacia (ATCC 10856). Put plainly: Spot on lawn, MHA plate: killing / diameter of clearance. Format: cell-based. The settings on record: 10 μL spot, 24 to 48 hours at 37° C.

Where a SMILES comes first, the peptide text is derived from it. Bridges are numbered along the chain shown (N, C = ends). [ ]: non-standard residue; d: D form. The star is where a group is joined. Ileψ(thiazoline)Cys = CC[C@H](C)[C@H](N)C1=N[C@H](C(=O)*)CS1; dOrn = NCCC[C@@H](N)C(=O)O

With `CC[C@H](C)[C@H](N)C1=N[C@H](C(=O)N[C@@H](CC(C)C)C(=O)N[C@H](CCC(=O)O)C(=O)N[C@H](C(=O)N[C@H]2CCCCNC(=O)[C@H](CC(N)=O)NC(=O)[C@@H](CC(=O)O)NC(=O)[C@H](Cc3cnc[nH]3)NC(=O)[C@@H](Cc3ccccc3)NC(=O)[C@H]([C@@H](C)CC)NC(=O)[C@@H](CCCN)NC2=O)[C@@H](C)CC)CS1` [Bacitracin] ({Ileψ(thiazoline)Cys}-L[dE]IK[dOrn]I[dF]H[dD]N; lactam 4-C), the antibacterial activity entry is given as “−” (B. cepacia (ATCC 10856)) and “−” (Burkholderia cepacia ATCC 10856).
